Data: patent US20070172444A1, “Hair tonics and method of screening the same” (Shiseido Company, Ltd., priority 2000, published 2007)
Residues, ends and D or L forms follow the SMILES beside them. *: point of attachment. Cbz = O=C(OCc1ccccc1)*; CH2F = FC*

Columns and labels:
[1] = target: T1, TGF-β2 (Homo sapiens, UniProt P61812); assay: Determination of PAI-1 in human dermal papilla cells cultured with TGF-β2; type: cell-based
T1 construct: host or cells: added to the culture medium of human dermal papilla cells
T1 sequence (P61812 303-414 limits assumed): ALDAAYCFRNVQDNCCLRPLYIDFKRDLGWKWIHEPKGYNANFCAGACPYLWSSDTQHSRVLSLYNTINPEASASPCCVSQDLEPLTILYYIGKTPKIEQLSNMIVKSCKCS
Method: The inhibition of effect of TGF-β2 can be determined as follows. Utilizing the fact that TGF-β2 induces the production of PAI-1, cells (e.g., dermal papilla cells) are cultured in the coexistence of TGF-β2 and the test substance, PAI-1 in the medium is determined, and to determine whether or not PAI-1 was inhibited as compared to the control.
The medium in which 10% bovine fetal serum was added to the DMEM medium to which three antibiotics of penicillin, streptomycin and fungizone had been added was used, and human dermal papilla cells were cultured in a 96-well plate (about 7,500 cells per well). First, dose dependency on TGF-β2 of the increased expression of PAI-1 was examined. At a suitable cell density, the medium was changed to ones containing various concentrations of TGF-β2, and was further cultured for 24 hours. Ten μl of the medium was taken out, and quantitated using a commercially available PAI-1 determination kit (TintElize PAI-1: biopool).
Then, the present inventors investigated, as described below, whether or not TGF-β2 has the effect of inhibiting the enhanced expression of PAI-1. Phyllodulcin was dissolved in DMSO at concentrations of 0.05-50 μg/ml and used. […] At the end of culturing, the survival of cells was also determined by the Alamar Blue method.

[2] = test system: isolated human hair; assay: Extension of isolated human hair; type: cell-based; settings: phyllodulcin added to isolated human hair, vs control
Method: The extension of hair when phyllodulcin was added to the isolated human hair was investigated. The result is as shown in a photograph in FIG. 20.

[3] = test system: human hair follicles; assay: Human hair follicle organ culture (hair extension, retention of hair bulb morphology); type: cell-based; settings: for extension of hair: 7 days
Method: Three antibiotics of penicillin, streptomycin and fungizone were added to the Williams E medium (Gibco), and the medium to which 10 ng/ml hydrocortisone, 10 μg/ml insulin, 10 ng/ml sodium pentaselenate and 10 μg/ml transferrin were further added was made the insulin-containing medium, and the medium to which they were not added was made the basal medium, and were used in a human hair follicle organ culture.
(§1) Using a microtome under a stereoscopic microscope, hair follicles in the growth phase were isolated from a human scalp. The isolated hair follicles were washed in the basal medium followed by the measurement of length, and then immersed in the insulin-containing medium (a 24-well microplate was used; 1 ml per well), and was cultured overnight at 37° C. in an atmospheric condition containing 5% CO2. After measuring the length again, hair follicles of which length extension was 0.25 mm or longer and of which morphology in the growth phase was retained were selected, and were divided in groups of 10 to 12 pieces so that the length extension may become equal. For each group, the medium was changed to one containing test substances, and the culturing was continued under the above gas phase condition.
The extension of hair follicles was determined over time by inserting a micrometer into the eyepiece of an inverted microscope. Photographs of the whole hair follicles and hair bulbs were taken by a camera connected to the inverted microscope.
On the second day of culturing, the medium was changed to one in which TGF-β2 was added to a final concentration of 50 ng/ml, and the culturing was continued for five days while observing the extension of hair follicles and morphological changes. […] Thus, it was estimated that TGF-β2 has an effect of promoting the regression phase.
The method was performed in accordance with the human hair follicle organ culture method. On the second day of culturing, the medium was changed to one in which anti-TGF-β antibody (manufactured by Genzyme) having the effect of neutralizing TGF-β or the control mouse IgG were added to a final concentration of 20 μg/ml or 100 μg/ml, and culturing was continued for 4-7 days while observing the extension and morphological changes of hair follicles.
The medium was changed to one in which fetuin (final concentration: 1, 10, 50 μM) or the control bovine serum albumin (final concentration: 50 μM) was added to the basal medium, and culturing was continued for a further 7 days while observing the extension and morphological changes of hair follicles.
as §1, with “that” for “that the”
The extension of hair follicles was determined with time by inserting a micrometer into the eyepiece of an inverted microscope. Photographs of the whole hair follicles and hair bulbs were taken by a camera connected to the inverted microscope.
Carbobenzoxy-valyl-alanyl-β-methyl-aspar-1-yl-fluoromethane (z-VAD-fmk) is known to inhibit almost all caspases. […] The medium was changed to one in which z-VAD-fmk (final concentration: 1, 10, 100 μM) was dissolved in DMSO or the control DMSO was added to the basal medium, and culturing was continued for further 7 days while observing the extension and morphological changes of hair follicles. […]

[4] = test system: human dermal papilla cells; assay: Cell survival by the Alamar Blue method; type: cell-based; settings: after 24 hours culture; 100% in the case of no addition
Method: Then, the present inventors investigated, as described below, whether or not TGF-β2 has the effect of inhibiting the enhanced expression of PAI-1. Phyllodulcin was dissolved in DMSO at concentrations of 0.05-50 μg/ml and used. After culturing for 24 hours in a medium containing 1 ng/ml TGF-β2, 10 μl of the medium was used to determine the amount of PAI-1. At the end of culturing, the survival of cells was also determined by the Alamar Blue method.
This was performed as described below. Thus, after washing twice in a fresh medium, the medium was changed to one containing 1/10 amount of Alamar Blue (Alamar Bioscience), and was incubated at 37° C. (5% CO2) for four hours. After incubation, absorbance at 595 nm and 570 nm was measured by a microplate reader in order to calculate the Alamar Blue reduction rate for each well, which was divided by the Alamar Blue reduction rate for the negative control in which no phyllodulcin samples were added, and the survival of the cells were calculated.

[5] = test system: precursor caspase-3; assay: Detection of precursor and activated caspase-3 in Pam212 cells cultured with TNF α and CHX; type: cell-based, mouse; settings: TNF α and CHX added, incubated six hours, antibody detection
Excerpt: The precursor caspase-3 was detected in almost all cells, whereas activated caspase-3 was not detected.

## COc1ccc([C@H]2Cc3cccc(O)c3C(=O)O2)cc1O [phyllodulcin]
[1]; 1 ng/ml TGF-β2, 24 hours, 100 in the case of no addition, phyllodulcin 0.05-50 μg/ml
  amount of PAI-1: 18
[2]
  extension of hair: the hair is extended as compared to the control
[3]; 0.6 μg/ml, eighth day of culturing, vs solvent control
  hair extension: significantly promoted
[4]
  Alamar Blue reduction rate (%): 95%

## COC(=O)CC(NC(=O)C(C)NC(=O)C(NC(=O)OCc1ccccc1)C(C)C)C(=O)CF (stereo not drawn) [z-VAD-fmk, Carbobenzoxy-valyl-alanyl-β-methyl-aspar-1-yl-fluoromethane] (Cbz-Val-Ala-Asp(OMe)-CH2F; configuration not given here)
[3]; Experiment 2 (day 4), 10 μM, control 12.5%
  Ratio of hair follicles in which the morphology of the hair bulb portions was retained: 37.5% (3/8)
[3]; Experiment 2 (day 6) as printed, 20 μM, control 20%
  Ratio of hair follicles in which the morphology of the hair bulb portions was retained: 60% (6/10)
[3]; z-VAD-fmk 1, 10, 100 μM, vs control DMSO
  extension of hair: significantly extended hair
[5]
  activation of the precursor caspase-3: completely inhibit the activation of the precursor caspase-3

## TGF-β2: transforming growth factor β2
[1]; various concentrations of TGF-β2, 24 hours
  expression of PAI-1: an increase in PAI-1 in a dose dependent manner
[3]; TGF-β2 50 ng/ml, sixth day of culturing, vs non-added control
  regression phase-like morphological changes: regression phase-like morphological changes were promoted

## fetuin
[3]; fetuin 1, 10, 50 μM, vs control bovine serum albumin 50 μM
  extension of hair: significantly extended hair
